Data taken from patent publication US9850293B2, “Targeting trastuzumab-resistant HER2+ breast cancer with a HER3-targeting nanoparticle” (priority 2014, dated 2017).

How the values were obtained:
[1] = molecular target: TSPO (Homo sapiens, UniProt P30536); experiment: S2Ga binding to recombinant TSPO (ultrafiltration, spectra); details: 1 μM
Description: (A) illustrates that S2Ga interacts with TSPO. […] Retentates were evaluated for the presence of protein-bound corrole by measuring the absorbance and fluorescence spectra. Where indicated, PK11195 was used as a competitive inhibitor for the porphyrin binding site on TSPO. (B) further illustrates that S2Ga interacts with TSPO. […] Retentates were evaluated for the presence of protein-bound corrole by measuring the absorbance and fluorescence spectra. Where indicated, PK11195 was used as a competitive inhibitor for the porphyrin binding site on TSPO. […] MDA-MB-435 cells were transfected with a plasmid expressing exogenous TSPO 24 hours before cells were treated with HerGa and examined for HerGa-mediated mitochondrial disruption, evidenced by reduced red fluorescent dye accumulation in mitochondria and accumulated green fluorescence in the cytoplasm.
TSPO translocates porphyrins and other metabolites into mitochondria for processing as well as interacts with components of the mitochondrial permeability transition pore complex, and is critical for cellular homeostasis, as knock-outs of TSPO are embryonic lethal in mice.

[2] = T-DM1; untargeted Dox in patients; cited from earlier work
[3] = tested on: SOD1
From the text: An in vitro assay measuring superoxide production from XOD−/+SOD.

[4] = tested on: human HER2+ tumor cells; experiment: HerMn toxicity, crystal violet survival; format: cell-based; details: 24 hours
Description: (§7) Each cell line received the indicated concentration of HerMn or S2Mn and was assessed for survival 24 hours later via crystal violet (CV) stain. N=3 per conc, from 3 separate experiments.

[5] = tested on: human HER2− tumor cells; experiment: HerMn toxicity, crystal violet survival; format: cell-based; details: 24 hours
Description: as §7

[6] = tested on: MDA-MB-435 (HER2+); experiment: Targeted toxicity, cell survival by MTT assay; format: cell-based, human; details: Dox 0.5 μM; HerPBK10 0.1 μM; day 3
Description: (§1) FIG. 7 illustrates targeted toxicity. […] Cell titer was determined by metabolic (i.e. MTT) assay. FIG. 7 upper panel illustrates the effect of HerDox on MDA-MB-231 (HER2−) and MDA-MB-435 (HER2+) cell survival. Relative surviving cell numbers are represented as a % of corresponding untreated cells. […] Relative survival (as % of untreated cells) is shown for Day 3 of treatment.
FIG. 8 illustrates receptor specificity. MDA-MB-435 (HER2+) cells were incubated with free ligand (eHRG) at 10× molar excess of HerDox for one hour at 4° C. Media was aspirated to remove free eHRG and fresh media containing HerDox (0.5 μM) was added to cells. Cell survival was measured by MTT assay and represented as a % of relative untreated cell numbers.
(§2) N=3. […] Bar, about 4 μm. […] (E) compares HerDox and Dox on off-target tissue. […] Green fluorescence in nuclei indicates apoptosis (positive TUNEL stain).
(§3) By three days, HerDox reduced HER2+ cell numbers by over 75% whereas HER2− cell survival was unaffected (FIG. 7). […] These findings emphasize the importance of targeting by showing that the untargeted drug affects nontarget (i.e. HER2−) cells. […] To test receptor targeting, the inventors used free heregulin ligand (Her or eHRG) as a competitive inhibitor. […] As a final in vitro challenge, the inventors tested whether HerDox induces toxicity specifically to HER2+ cells in a mixed culture of HER2+ and HER2− breast cancer cells. To do this, the inventors produced a HER2− cell line tagged with green fluorescent protein (GFP) for cell identification in the mixed culture (FIG. 9-A). […] Altogether, these findings indicate that HerDox has the capacity to preferentially target toxicity to HER2+ cells. […] In serum-containing media, no such loss from HerDox is detectable. […] Co-migration of HerPBK10 bands further verified that the conjugates remained intact in the cell media.

[7] = tested on: MDA-MB-231 (HER2−); experiment: Targeted toxicity, cell survival by MTT assay; format: cell-based, human; details: 0.5 μM with respect to Dox; HerPBK10 0.1 μM; day 3
Description: as §1, §2, §3

[8] = tested on: HER2+ tumors; experiment: HerDox and Dox biodistribution (Dox fluorescence imaging); details: tissues harvested ~3 h after injection
From the text: FIG. 11 (A) depicts imaging of live mice after IV delivery of HerDox. Tumors are indicated by arrows.

[9] = tested on: HER2+ tumors (MDA-MB-435); experiment: In vivo tumor toxicity (tumor growth); design: species or system mouse
[10] = Off-target toxicity in treated mice (weight, heart, liver)
Description: Relative cell survival (as % of untreated cells) on day 3 of treatment. (+Her), pre-incubation of MDA-MB-435 cells with receptor-blocking ligand (recombinant heregulin) before receiving HerDox. N=3. […] Tissues were harvested from independently injected mice euthanized at indicated time points after injection and fluorescence intensity/tissue acquired using a multimode imager. […] Bar, about 4 μm. […] Day 0=3 days before tail vein injections (mice received daily injections for 7 days). […] Day 0=3 days before tail vein injections (mice received daily injections for 7 days). […] Micrographs (20× magnification) in (E) also show representative H&E stained specimens of myocardia and immunofluorescent specimens of livers from treated mice. Green fluorescence in nuclei indicates apoptosis (positive TUNEL stain).

[11] = tested on: MDA-MB-435 cells; experiment: Intracellular translocation of HerDox and Dox (microscopy); format: cell-based, human
Description: Live (unfixed) cells were imaged by brightfield and fluorescence microscopy.
Live (unfixed) cells were imaged by DIC and confocal fluorescence microscopy.
FIG. 15 illustrates HerDox trafficking in breast cancer cells. Cells incubated with HerDox at 37° C. were fixed at the indicated time points and processed for immunofluorescence using an antibody against HerPBK10. Images were captured using confocal microscopy under fluorescence and brightfield. n, nucleus; Bar, ˜8 microns.

[12] = tested on: JIMT-1 cell line; experiment: Tumor cell killing in culture, pre-existing resistance; format: cell-based, human; details: broad concentration range
Description: N=3. *, p<0.05 compared to parental. […] N=3. […] Treatments were compared to mock (saline)-treatment. […] N=3. *, p<0.05 compared to parental. […] N=3.
(§4) The efficacy of HerDox was also examined on a cell line with pre-existing resistance.
(§5) The contribution of HER3 to targeted toxicity was evaluated by assessing whether pre-adsorbing HerDox with a peptide comprising the ligand-binding domain of HER3 blocked cytotoxicity.

[13] = tested on: JIMT-1 tumors; experiment: Trastuzumab-resistant tumor growth in vivo; design: species or system mouse; details: 0.004 mg Dox/kg/injection, twice-weekly IV
Description: (§6) Tumor volumes were measured by calipers. Day 0 corresponds to first day of treatment. N=10 tumors per treatment.
as §6, §4, §5

Chain of TSPO (P30536 whole entry): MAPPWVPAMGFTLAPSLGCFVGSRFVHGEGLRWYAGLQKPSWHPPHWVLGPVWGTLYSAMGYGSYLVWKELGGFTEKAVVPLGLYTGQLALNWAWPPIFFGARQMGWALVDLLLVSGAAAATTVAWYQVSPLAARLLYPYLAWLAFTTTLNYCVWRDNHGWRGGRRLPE

Compound: sulfonated gallium(III) corrole [S2Ga]
- binding to TSPO with PK11195 [1]: competitively inhibited by PK11195
- binding to TSPO ([1]; ~20 min, room temperature): directly binds

Compound: T-DM1
- therapeutic dose required [2]: about 3.6 mg/kg

Compound: sulfonated non-metallated free-base corrole [S2FB]
- inhibition of SOD1 [3]: inhibit SOD activity
- reduction of SOD activity ([3]; 1 μM): about one-third

Compound: sulfonated manganese(III) corrole [S2Mn]
- toxicity to HER2+ tumor cells [4]: no effect on cell survival
- toxicity to HER2− tumor cells [5]: no effect on cell survival

Compound: COc1cccc2c1C(=O)c1c(O)c3c(c(O)c1C2=O)C[C@@](O)(C(=O)CO)C[C@@H]3O[C@H]1C[C@H](N)[C@H](O)[C@H](C)O1 [Dox, doxorubicin, reference compound]
- effect on HER2+ cell survival [6]: reduced both HER2+ and HER2− cells by the same order of magnitude
- effect on HER2− cell survival [7]: reduced both HER2+ and HER2− cells by the same order of magnitude
- fluorescence in kidneys [8]: detectable fluorescence
- fluorescence in liver [8]: detectable fluorescence
- fluorescence in other tissues (heart, spleen, lungs, skeletal muscle) [8]: Lower levels of fluorescence were also detectable in the lungs and skeletal muscle
- fluorescence in tumors [8]: detectable fluorescence
- effect on tumor growth ([9]; 0.004 mg/kg with respect to Dox, daily tail vein injections for 7 days): slows tumor growth
- dose eliciting tumor growth ablation / tumor cell death ([9]; mice, dose of Dox): more than 0.04 mg/kg
- heart gross appearance ([10]; 25 days following injections): slightly enlarged and dilated
- myocardium morphology (histochemistry) ([10]; 25 days following injections): focal degeneration, myofibrillar loss, increased cytosoplasmic vacuolization, and nuclear condensation or dissolution
- cardiac function (echocardiograms) ([10]; mouse, in vivo): modest to marked reductions in stroke volume, cardiac output, and left ventricular internal dimension and volume
- liver and heart toxicity ([10]; systemic delivery in vivo): causing liver tissue and myocardial damage
- intracellular location of Dox fluorescence ([11]; 0 min of uptake, 0.5 μM): already found inside the cell at the nuclear periphery
- intranuclear pattern of Dox in live cells ([11]; confocal, live cells): accumulates in the cell nucleus
- response of JIMT-1 cells [12]: only partially responsive
- effect on JIMT-1 tumor growth [13]: only slight
